The source made the active and inactive calls.
Tests used:
[1] = target: Cytochrome P450 2C19 (Homo sapiens, UniProt P33261); experiment: qHTS Assay for Inhibitors and Substrates of Cytochrome P450 2C19. [Related pubchem assays: 410 ]; type: ADME; conditions: read-out: Potency
[2] = target: Cytochrome P450 2D6 (Homo sapiens, UniProt P10635); experiment: qHTS Assay for Inhibitors and Substrates of Cytochrome P450 2D6. [Related pubchem assays: 410 ]; type: ADME; conditions: read-out: Potency
[3] = Luminescence Cell-Based Dose Confirmation HTS to Identify Inhibitors of Polyadenylation.; type: functional
[4] = target: Photoreceptor-specific nuclear receptor (Homo sapiens, UniProt Q9Y5X4); experiment: ligands suppressing NR2E3 nuclear receptor activity – biochemical, TR-FRET, dose response (AID 463256); type: functional
[5] = target: Peroxisome proliferator-activated receptor gamma/Nuclear receptor corepressor 2 (Homo sapiens, UniProt P37231+Q9Y618); experiment: Counterscreen for NR2E3 inverse agonists: TR-FRET-based biochemical high throughput dose response assay to identify inverse agonists of the interaction between peroxisome proliferator-activated receptor gamma (PPARg) and nuclear receptor co-repressor 2 (NCOR2).; type: functional
[6] = system: BJ; experiment: cells; type: functional, cell-based; conditions: Homo sapiens, read-out: EC50
[7] = system: HEK293; experiment: cells; conditions: Homo sapiens
[8] = Luminescent dose response cell-based high throughput screening assay for inhibitors of the Janus kinase 2 mutant JAK2V617F. [Related pubchem assays: 1446 (Primary screen.), 1521 (Confirmation assay.), 1486 (Counter screen.)]; type: functional
[9] = system: HEK293; experiment: inhibition of NOD1-driven NF-kB reporter – cell-based, luminescence, uHTS, primary screen (AID 1578); type: functional; conditions: Homo sapiens
[10] = system: BJ; experiment: BJ-TERT-LT-ST fibroblast viability loss – cell-based, RAS-independent, luminescence, dose response (AID 1935); type: functional; conditions: Homo sapiens;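 note: BJ fibroblasts immortalized with TERT plus LT and ST oncogenes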
[11] = system: HEK293; experiment: NOD2 signaling inhibitors in MDP-stimulated cells, cell-based, uHTS, luminescence (AID 2001); type: functional; conditions: Homo sapiens
[12] = DRD fibroblast viability loss – cell-based, non-viral oncogenic, luminescence, dose response (AID 1934); type: functional; conditions: Homo sapiens
[13] = system: HEK293; experiment: cells; type: functional, cell-based; conditions: Homo sapiens
[14] = system: Vero; experiment: cells; type: functional; conditions: Chlorocebus sabaeus
[15] = system: HEK293; experiment: cells; type: functional, cell-based; conditions: Homo sapiens; remark: listed apart in the source
[16] = system: BJ; experiment: BJ-TERT fibroblast viability loss – cell-based, RAS-independent, luminescence, dose response (AID 1933); type: functional; conditions: Homo sapiens
[17] = target: Tumor necrosis factor (Homo sapiens, UniProt P01375); experiment: analog potency on TNFa NF-kB signaling – cell-based, revised, SAR follow-up (AID 2337); type: functional
[18] = target: T1, Nucleotide-binding oligomerization domain-containing protein 1 (Homo sapiens, UniProt Q9Y239); experiment: blockers of NOD1 pathway activity – revised, SAR follow-up (AID 2333); type: functional
T1 sequence (Q9Y239 whole entry): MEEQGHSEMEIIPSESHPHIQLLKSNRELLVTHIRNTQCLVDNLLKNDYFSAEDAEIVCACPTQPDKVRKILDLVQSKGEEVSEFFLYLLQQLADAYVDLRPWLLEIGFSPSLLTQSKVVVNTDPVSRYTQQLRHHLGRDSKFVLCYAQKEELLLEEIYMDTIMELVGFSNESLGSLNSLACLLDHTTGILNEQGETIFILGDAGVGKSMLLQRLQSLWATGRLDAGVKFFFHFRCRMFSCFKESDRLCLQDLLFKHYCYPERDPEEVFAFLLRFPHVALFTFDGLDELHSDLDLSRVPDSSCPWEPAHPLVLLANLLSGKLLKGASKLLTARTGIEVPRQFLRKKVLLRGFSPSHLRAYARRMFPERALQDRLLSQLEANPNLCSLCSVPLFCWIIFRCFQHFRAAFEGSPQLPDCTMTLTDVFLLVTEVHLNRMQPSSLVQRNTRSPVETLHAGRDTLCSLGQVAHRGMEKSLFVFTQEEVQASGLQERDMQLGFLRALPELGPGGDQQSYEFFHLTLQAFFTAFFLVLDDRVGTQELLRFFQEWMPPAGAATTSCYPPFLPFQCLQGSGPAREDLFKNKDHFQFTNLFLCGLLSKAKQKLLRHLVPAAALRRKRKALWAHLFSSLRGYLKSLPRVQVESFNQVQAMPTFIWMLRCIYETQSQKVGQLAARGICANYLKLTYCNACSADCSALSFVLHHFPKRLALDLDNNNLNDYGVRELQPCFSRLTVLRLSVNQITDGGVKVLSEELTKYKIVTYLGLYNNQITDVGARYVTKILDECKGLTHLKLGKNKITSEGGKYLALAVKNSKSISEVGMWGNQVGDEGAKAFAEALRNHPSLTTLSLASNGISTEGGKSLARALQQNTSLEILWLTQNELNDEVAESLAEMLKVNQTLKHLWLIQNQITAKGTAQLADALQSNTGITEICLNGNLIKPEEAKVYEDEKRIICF

[19] = system: BJ; experiment: growth inhibition of engineered Ras-driven BJ cells – cell-based, alamar blue fluorescence, cherrypicked samples, dose response (AID 2631); type: functional; conditions: Homo sapiens;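 note: confirmatory dose-response assay in RAS-dependent BJ fibroblasts engineered with TERT, LT and ST, with cytotoxicity read by fluorescence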
[20] = target: T2, Bcl-2-related protein A1 (Mus musculus, UniProt Q07440); experiment: Bfl-1 binding inhibitors, SAR follow-up, biochemical, fluorescence polarization (AID 1070)
[21] = target: T2, Bcl-2-related protein A1; experiment: small-molecule antagonists of Bfl-1/BH3 interaction – biochemical, TR-FRET, mouse Bfl-1, confirmation (AID 621);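 note: TR-FRET binding of GST-Bfl-1 to FITC-labelled Bid peptide via terbium antibody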
[22] = target: Glyceraldehyde-3-phosphate dehydrogenase (Homo sapiens, UniProt P04406)
[23] = NIH3T3 cell viability loss – ATP luminescence, mouse fibroblasts, counter-screen, dose response (AID 2010); type: functional, cell-based;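 note: cells exposed to compound for about 90 hours before reading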
[24] = target: Neuropeptide Y receptor type 1 (Homo sapiens, UniProt P25929); type: functional;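 note: HEK293 cells with a CNG channel challenged with NPY then isoproterenol; potency as antagonist that reverses NPY suppression of cAMP signal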
[25] = target: Neuropeptide Y receptor type 2 (Homo sapiens, UniProt P49146); type: functional, cell-based;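 note: HEK293 cells expressing the receptor and a CNG channel; stimulus was NPY near EC95 followed by isoproterenol to raise cAMP; antagonist potency measured as restoring cAMP signal that NPY suppresses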
[26] = Trypanosoma cruzi growth suppression in host cells – NIH3T3 host cells, beta-gal luminescence, confirmation (AID 2044); type: functional, cell-based;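 note: intracellular parasites grown in NIH/3T3 mouse fibroblasts as host cells; luminescent beta-galactosidase reporter signal from transgenic T. cruzi replicating inside host cells; inhibitors lower the luminescence signal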
[27] = target: NADPH oxidase 1 (Homo sapiens, UniProt Q9Y5S8); type: functional, cell-based;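 note: Cell-based assay with luminescence read-out, IC50 derived from inhibitor dose-response curves; intracellular ROS from endogenous NOX1 in intact HT29 colon cancer cells; potency of inhibitors that lower the ROS luminescence signal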
[28] = target: Calpain-2 catalytic subunit (Sus scrofa, UniProt P43367); experiment: m-calpain protease blockers, concentration series – biochemical, fluorogenic peptide substrate, dose response (AID 1420); type: functional
[29] = target: Vasopressin V1a receptor (Homo sapiens, UniProt P37288); experiment: Fluorescence-based cell-based high throughput dose response screening assay for agonists of the vasopressin 1 receptor (V1R).; type: functional
[30] = target: Oxytocin receptor (Homo sapiens, UniProt P30559); experiment: Counterscreen for vasopressin 1 receptor (V1R) agonists: Fluorescence-based cell-based high throughput dose response assay for agonists of the Oxytocin Receptor (OXTR). [Related pubchem assays: 2435 (Primary screen (OXTR agonists in singlicate)), 434964 (Confirmation screen (V1R agonists in triplicate)), 434969 (Counterscreen (OXTR agonists in …; type: functional
[31] = target: T3, Estrogen receptor beta (Homo sapiens, UniProt Q92731);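 note: recombinant ER-beta bound to coactivator SRC1 peptide in presence of estradiol agonist; inhibitors block coactivator peptide binding and lower the FRET signal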
[32] = target: T4, Estrogen receptor (Homo sapiens, UniProt P03372);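 note: potency for inhibiting coactivator peptide recruitment to the receptor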
T4 sequence (P03372 whole entry): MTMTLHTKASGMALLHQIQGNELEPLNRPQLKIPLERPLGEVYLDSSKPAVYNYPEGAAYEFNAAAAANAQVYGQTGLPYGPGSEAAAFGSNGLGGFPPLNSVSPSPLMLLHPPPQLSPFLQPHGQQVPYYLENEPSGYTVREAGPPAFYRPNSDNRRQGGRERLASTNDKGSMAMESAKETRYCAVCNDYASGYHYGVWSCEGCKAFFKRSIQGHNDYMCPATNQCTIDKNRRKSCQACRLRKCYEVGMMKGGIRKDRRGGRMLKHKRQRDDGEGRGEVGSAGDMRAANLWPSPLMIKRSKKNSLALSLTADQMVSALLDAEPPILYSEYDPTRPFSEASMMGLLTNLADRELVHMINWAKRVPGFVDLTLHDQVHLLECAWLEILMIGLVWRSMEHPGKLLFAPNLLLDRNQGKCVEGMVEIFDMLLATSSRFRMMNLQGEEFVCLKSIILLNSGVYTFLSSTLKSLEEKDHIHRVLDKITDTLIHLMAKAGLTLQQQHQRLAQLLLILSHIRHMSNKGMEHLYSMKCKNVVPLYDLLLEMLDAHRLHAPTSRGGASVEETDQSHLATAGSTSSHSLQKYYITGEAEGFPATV

[33] = target: T3, Estrogen receptor beta; experiment: blockers of SRC-3 recruitment to ERβ – biochemical, ELISA, streptavidin-HRP readout, orthogonal assay, confirmation (AID 1060)

T3 sequence (Q92731 whole entry): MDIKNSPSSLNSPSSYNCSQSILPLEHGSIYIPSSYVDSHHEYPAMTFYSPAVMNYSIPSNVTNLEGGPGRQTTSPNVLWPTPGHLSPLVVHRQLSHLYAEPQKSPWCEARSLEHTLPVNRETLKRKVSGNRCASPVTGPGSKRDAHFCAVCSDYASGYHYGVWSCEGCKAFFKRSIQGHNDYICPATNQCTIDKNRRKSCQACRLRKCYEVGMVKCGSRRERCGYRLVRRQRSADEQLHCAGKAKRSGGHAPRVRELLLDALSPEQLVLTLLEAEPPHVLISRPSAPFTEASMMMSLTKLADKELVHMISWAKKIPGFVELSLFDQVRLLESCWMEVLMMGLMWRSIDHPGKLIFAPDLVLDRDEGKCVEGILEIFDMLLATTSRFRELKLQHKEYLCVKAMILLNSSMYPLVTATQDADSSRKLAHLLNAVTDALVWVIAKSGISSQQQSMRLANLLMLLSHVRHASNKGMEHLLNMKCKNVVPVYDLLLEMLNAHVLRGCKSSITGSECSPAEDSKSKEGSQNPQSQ
T2 sequence (Q07440 whole entry): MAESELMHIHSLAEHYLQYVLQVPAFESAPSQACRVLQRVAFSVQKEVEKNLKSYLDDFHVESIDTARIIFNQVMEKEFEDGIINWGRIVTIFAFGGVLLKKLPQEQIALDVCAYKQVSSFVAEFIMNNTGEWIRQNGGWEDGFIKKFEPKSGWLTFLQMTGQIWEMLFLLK
Vasopressin V1a receptor, sequence (P37288 whole entry): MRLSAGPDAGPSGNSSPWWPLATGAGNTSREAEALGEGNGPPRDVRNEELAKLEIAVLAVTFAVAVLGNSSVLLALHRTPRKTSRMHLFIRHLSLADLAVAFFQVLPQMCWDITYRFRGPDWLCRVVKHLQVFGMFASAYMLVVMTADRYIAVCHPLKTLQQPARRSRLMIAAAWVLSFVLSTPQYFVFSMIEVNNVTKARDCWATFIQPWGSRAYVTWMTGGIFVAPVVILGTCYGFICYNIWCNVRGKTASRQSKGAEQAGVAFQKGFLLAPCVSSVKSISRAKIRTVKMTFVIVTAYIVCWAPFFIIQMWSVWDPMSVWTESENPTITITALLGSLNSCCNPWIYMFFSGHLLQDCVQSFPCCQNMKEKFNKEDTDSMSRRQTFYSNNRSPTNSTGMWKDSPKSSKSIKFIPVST
Cytochrome P450 2D6, sequence (P10635 whole entry): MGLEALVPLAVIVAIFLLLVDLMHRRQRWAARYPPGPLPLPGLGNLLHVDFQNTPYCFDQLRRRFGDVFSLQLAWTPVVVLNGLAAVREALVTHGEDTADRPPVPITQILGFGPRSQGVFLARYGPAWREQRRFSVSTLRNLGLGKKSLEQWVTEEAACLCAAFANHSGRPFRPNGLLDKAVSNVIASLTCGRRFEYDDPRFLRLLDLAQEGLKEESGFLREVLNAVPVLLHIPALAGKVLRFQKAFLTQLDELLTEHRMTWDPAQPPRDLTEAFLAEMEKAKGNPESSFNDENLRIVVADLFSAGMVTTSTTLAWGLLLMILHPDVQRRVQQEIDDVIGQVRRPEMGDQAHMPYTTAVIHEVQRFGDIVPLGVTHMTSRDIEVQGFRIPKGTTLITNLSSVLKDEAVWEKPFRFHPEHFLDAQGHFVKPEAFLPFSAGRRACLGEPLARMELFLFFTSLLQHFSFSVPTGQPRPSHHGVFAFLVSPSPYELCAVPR
Cytochrome P450 2C19, sequence (P33261 whole entry): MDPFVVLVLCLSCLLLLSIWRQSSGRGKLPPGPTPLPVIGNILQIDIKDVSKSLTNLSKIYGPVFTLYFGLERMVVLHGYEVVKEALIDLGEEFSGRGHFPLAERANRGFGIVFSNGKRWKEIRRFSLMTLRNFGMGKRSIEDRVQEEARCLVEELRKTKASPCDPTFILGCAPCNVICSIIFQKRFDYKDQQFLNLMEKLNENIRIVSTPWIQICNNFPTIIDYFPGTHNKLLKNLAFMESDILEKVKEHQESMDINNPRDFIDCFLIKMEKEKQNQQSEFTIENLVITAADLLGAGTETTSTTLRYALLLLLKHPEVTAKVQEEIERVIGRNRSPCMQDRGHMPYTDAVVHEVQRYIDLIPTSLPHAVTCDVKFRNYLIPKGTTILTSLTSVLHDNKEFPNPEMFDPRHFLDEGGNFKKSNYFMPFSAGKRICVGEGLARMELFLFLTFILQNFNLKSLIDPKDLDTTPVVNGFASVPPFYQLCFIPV
NADPH oxidase 1, sequence (Q9Y5S8 whole entry): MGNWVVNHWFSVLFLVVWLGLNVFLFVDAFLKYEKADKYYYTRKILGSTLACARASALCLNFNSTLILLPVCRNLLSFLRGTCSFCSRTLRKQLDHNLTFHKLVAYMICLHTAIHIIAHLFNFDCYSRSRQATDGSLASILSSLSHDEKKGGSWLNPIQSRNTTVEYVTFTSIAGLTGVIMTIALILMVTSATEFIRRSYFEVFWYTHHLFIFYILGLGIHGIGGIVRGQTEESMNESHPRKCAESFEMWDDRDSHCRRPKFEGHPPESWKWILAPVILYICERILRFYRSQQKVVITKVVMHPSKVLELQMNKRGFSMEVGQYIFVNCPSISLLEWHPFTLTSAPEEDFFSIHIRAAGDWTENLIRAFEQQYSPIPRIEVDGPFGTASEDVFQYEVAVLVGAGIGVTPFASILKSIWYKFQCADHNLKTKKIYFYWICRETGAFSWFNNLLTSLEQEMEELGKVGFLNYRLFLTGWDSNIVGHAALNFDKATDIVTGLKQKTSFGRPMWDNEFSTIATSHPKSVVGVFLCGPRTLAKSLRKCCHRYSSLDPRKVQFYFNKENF
Neuropeptide Y receptor type 2, sequence (P49146 whole entry): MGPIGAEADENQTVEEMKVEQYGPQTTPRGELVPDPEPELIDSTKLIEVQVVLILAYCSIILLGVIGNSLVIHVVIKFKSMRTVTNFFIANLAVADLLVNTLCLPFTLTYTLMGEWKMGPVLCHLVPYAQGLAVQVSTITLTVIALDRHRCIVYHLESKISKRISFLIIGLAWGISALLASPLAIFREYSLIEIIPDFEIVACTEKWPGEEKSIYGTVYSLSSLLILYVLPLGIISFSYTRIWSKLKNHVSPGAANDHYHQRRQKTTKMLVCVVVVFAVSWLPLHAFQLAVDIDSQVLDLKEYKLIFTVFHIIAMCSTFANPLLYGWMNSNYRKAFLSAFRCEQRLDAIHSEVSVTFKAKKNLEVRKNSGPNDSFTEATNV
Glyceraldehyde-3-phosphate dehydrogenase, sequence (P04406 whole entry): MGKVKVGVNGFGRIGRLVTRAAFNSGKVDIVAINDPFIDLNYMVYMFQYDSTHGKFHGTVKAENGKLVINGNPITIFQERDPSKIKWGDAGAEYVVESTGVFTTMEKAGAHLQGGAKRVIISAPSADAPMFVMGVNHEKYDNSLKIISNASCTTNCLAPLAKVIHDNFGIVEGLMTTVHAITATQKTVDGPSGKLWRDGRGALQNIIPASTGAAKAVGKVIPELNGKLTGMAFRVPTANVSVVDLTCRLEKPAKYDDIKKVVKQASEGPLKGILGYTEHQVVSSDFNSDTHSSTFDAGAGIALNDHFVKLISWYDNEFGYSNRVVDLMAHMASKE
Tumor necrosis factor, sequence (P01375 whole entry, the tested form may be a part): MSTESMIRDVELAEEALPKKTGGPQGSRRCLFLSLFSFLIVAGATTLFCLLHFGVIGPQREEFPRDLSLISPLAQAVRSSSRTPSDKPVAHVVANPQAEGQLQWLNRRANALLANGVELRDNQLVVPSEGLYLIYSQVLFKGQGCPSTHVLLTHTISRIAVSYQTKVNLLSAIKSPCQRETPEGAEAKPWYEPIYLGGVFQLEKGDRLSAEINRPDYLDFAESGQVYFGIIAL
Oxytocin receptor, sequence (P30559 whole entry): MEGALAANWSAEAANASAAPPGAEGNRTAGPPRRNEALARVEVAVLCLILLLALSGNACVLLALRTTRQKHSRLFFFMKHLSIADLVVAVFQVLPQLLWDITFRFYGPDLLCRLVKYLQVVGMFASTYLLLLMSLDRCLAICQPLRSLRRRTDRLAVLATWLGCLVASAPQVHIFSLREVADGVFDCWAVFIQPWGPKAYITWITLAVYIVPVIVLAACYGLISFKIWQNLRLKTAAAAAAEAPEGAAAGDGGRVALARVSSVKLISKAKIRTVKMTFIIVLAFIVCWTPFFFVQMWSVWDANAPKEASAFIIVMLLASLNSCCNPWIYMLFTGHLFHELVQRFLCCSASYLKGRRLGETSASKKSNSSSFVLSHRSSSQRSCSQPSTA
Neuropeptide Y receptor type 1, sequence (P25929 whole entry): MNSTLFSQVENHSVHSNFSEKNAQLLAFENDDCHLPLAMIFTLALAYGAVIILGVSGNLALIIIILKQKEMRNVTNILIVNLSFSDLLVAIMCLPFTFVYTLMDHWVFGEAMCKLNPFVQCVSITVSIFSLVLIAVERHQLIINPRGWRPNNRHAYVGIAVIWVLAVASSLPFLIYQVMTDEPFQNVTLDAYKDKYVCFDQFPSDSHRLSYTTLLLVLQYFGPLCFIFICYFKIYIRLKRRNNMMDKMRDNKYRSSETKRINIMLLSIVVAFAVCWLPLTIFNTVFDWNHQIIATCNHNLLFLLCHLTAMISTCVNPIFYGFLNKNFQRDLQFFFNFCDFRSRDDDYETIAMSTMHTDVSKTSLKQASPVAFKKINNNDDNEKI
Photoreceptor-specific nuclear receptor, sequence (Q9Y5X4 whole entry): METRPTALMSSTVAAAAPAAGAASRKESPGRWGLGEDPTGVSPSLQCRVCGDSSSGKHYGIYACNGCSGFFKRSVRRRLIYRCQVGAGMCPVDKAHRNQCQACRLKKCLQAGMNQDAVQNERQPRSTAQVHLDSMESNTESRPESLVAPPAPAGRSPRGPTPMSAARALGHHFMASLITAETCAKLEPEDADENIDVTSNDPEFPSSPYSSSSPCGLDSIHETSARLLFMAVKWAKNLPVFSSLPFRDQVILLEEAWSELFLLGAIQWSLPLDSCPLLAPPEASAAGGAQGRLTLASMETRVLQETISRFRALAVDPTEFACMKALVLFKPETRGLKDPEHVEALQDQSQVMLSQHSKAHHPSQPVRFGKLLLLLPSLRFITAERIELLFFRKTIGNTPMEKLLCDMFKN

## COC(=O)NC(/C(C(=O)OC)=C(\C)NCc1ccccc1)c1cccc(F)c1 (stereo not drawn)
[1]
  AC50: 7.94 µM (inconclusive)
[2]
  AC50: 5.01 µM (inconclusive)

## COc1ccccc1N1CCN(C(=O)CCNS(=O)(=O)c2ccc(Br)s2)CC1
[3]
  EC50: > 120 µM (not active)

## Cc1ccc2oc(=O)cc(CN3CCCCC3)c2c1
[4]
  IC50: 7.54 µM (active)
[5]
  IC50: > 39.8 µM (not active)

## Cc1cccc(Nc2nc(N)nc(CCl)n2)c1C
[6]
  EC50: 2.02 µM (active)
[7]
  IC50: > 20 µM (inactive)
[8]
  IC50: 0.628 µM (active)
[9]
  EC50: 10.8 µM (active)
[10]
  EC50: > 75 µM (inconclusive)
[11]
  IC50: 9.47 µM (active)
[12]
  EC50: 0.65 µM (active)
[13]
  IC50: > 20 µM (inactive)
[14]
  CC50: 2.11 µM (active)
[15]
  IC50: 9.12 µM (active)
[16]
  EC50: 2.19 µM (inconclusive)
[17]
  IC50: 9.45 µM (active)
[18]
  IC50: 4.04 µM (active)
[19]
  EC50: 6.44 µM (active)

## COc1cccc(-c2cc(C(F)(F)F)nc(S(C)(=O)=O)n2)c1
[20]
  IC50: 6.78 µM (active)
[21]
  IC50: 2.24 µM (active)
[22]
  IC50: > 100 µM (not active)

## Cc1ccccc1N1CCN(CCCOc2ccc3c(C)cc(=O)oc3c2)CC1
[23]
  EC50: 9.32 µM (active)
[24]
  IC50: > 35 µM (not active)
[25]
  IC50: > 35 µM (not active)
[26]
  EC50: 0.124 µM (active)

## COc1ccc(/C=N/Nc2c(Cl)cncc2Cl)c(OC)c1OC
[27]
  IC50: > 17 µM (not active)

## C=CCNC(=S)N/N=C/c1cccc([N+](=O)[O-])c1
[28]
  IC50: 6.63 µM (active)

## CCN(CC)c1ccc2cc(C(N)=O)/c(=N\NC(=O)c3ccncc3)oc2c1
[29]
  EC50: 18.6 µM (not active)
[30]
  EC50: 21.8 µM (not active)

## Cc1ccc(OCc2ccoc2C(=O)O)cc1C
[31]
  IC50: 5.86 µM (active)
[32]
  IC50: 25.4 µM (active)
[33]
  IC50: < 0.023 µM (not active)

From ChEMBL document CHEMBL1201862, “PubChem BioAssay data set” (2004)
